From US9096601B2 (CSPC Zhongqi Pharmaceutical Technology (Shijiazhuang) Co., …, priority 2010, dated 2015)

Experiments:
[1] = test system: colon cancer cell strain HCT116; assay: In-vitro tumor cell proliferation inhibition, MTT; format: cell-based, human; details: 72 hours
[2] = test system: acute myelogenous leukemia cell strain MV4-11; assay: In-vitro tumor cell proliferation inhibition, MTT; format: cell-based, human; details: 72 hours
[3] = test system: breast carcinoma cell strain MDA-MB-468; assay: In-vitro tumor cell proliferation inhibition, MTT; format: cell-based, human; details: 72 hours
[4] = test system: gastric cancer cell strain MK-45; assay: In-vitro tumor cell proliferation inhibition, MTT; format: cell-based, human; details: 72 hours, read-out: MK45 (IC50)
[5] = test system: colon cancer cell strain SW620; assay: In-vitro tumor cell proliferation inhibition, MTT; format: cell-based, human; details: 72 hours
Method in brief: (§1)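 MTT colorimetric proliferation test: plated cells exposed 72 h to compound dilution series, DMSO 1% solvent control included. A570 gave inhibition relative to drug-free control; IC50 or inhibitory rate from at least three experiments. HCC827 and BT474 grown in RPMI-1640, A431 and SW620 in DMEM, both with 10% FBS.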

[6] = test system: squamous cell carcinoma cell strain A431; assay: In-vitro tumor cell proliferation inhibition, MTT; format: cell-based, human; details: 72 hours
Method in brief: as §1

[7] = test system: chronic granulocytic leukemia cell strain K562; assay: In-vitro tumor cell proliferation inhibition, MTT; format: cell-based, human; details: 72 hours
[8] = test system: breast carcinoma cell strain BT474; assay: In-vitro tumor cell proliferation inhibition, MTT; format: cell-based, human; details: 72 hours
Method in brief: as §1

[9] = test system: colon cancer cell strain SW480; assay: In-vitro tumor cell proliferation inhibition, MTT; format: cell-based, human; details: 72 hours
[10] = test system: liver cancer cell strain Hep G2; assay: In-vitro tumor cell proliferation inhibition, MTT; format: cell-based, human; details: 72 hours, read-out: HEPG2 (IC50)
[11] = test system: malignant melanoma cell strain A375; assay: In-vitro tumor cell proliferation inhibition, MTT; format: cell-based, human; details: 72 hours
FLT3 = FLT3 (Homo sapiens (Human), UniProt P36888); assay: Kinase inhibitory activity, isotopic labeling (γ-33P-ATP); format: biochemical; details: compound at 10 μM
c-SRC = c-SRC (Homo sapiens (Human), UniProt P12931); assay: as above; format: biochemical; details: compound at 10 μM
c-SRC, sequence (P12931 whole entry, looked up): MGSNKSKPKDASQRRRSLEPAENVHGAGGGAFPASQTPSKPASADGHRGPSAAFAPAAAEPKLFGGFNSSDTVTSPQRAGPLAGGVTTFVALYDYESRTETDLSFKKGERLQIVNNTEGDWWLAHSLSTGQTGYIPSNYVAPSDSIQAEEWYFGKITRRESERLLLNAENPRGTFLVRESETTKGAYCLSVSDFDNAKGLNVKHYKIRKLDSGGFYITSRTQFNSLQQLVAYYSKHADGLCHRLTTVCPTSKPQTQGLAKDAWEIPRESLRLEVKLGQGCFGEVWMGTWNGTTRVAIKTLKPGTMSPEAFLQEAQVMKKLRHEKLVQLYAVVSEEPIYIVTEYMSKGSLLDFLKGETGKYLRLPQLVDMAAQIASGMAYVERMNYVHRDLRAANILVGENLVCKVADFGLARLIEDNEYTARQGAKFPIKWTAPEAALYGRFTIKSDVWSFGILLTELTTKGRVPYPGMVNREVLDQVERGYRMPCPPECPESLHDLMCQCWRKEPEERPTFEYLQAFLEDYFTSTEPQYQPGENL

ALK = ALK (Homo sapiens (Human), UniProt Q9UM73); assay: as above; format: biochemical; details: compound at 10 μM
MET = MET (Homo sapiens (Human), UniProt P08581); assay: as above; format: biochemical; details: compound at 10 μM
c-KIT = c-KIT (Homo sapiens (Human), UniProt P10721); assay: as above; format: biochemical; details: compound at 10 μM
c-KIT, sequence (P10721 26-976): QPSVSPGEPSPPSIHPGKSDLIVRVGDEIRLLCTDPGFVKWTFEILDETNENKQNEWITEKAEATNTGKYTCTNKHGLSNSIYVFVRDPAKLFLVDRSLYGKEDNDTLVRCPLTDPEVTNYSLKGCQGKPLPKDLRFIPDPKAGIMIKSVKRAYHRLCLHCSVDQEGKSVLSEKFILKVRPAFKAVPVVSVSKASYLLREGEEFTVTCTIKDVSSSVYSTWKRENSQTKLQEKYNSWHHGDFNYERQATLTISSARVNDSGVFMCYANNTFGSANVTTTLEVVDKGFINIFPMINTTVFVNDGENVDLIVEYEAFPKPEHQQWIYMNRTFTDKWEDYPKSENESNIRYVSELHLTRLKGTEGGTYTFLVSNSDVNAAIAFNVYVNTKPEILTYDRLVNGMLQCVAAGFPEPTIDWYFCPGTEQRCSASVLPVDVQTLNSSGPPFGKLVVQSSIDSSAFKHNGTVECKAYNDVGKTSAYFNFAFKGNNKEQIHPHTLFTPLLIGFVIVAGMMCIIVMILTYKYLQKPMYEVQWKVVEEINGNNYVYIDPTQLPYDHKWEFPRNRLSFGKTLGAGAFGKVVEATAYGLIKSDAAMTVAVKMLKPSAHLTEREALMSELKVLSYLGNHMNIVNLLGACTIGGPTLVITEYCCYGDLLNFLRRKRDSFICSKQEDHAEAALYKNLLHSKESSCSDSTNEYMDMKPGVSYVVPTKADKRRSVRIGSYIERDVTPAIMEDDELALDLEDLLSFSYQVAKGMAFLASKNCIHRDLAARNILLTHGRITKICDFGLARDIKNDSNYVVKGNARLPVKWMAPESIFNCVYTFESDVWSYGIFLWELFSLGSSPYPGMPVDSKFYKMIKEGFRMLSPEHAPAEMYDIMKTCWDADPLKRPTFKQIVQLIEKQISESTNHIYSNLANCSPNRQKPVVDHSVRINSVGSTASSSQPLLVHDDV

BTK = BTK (Homo sapiens (Human), UniProt Q06187); assay: as above; format: biochemical; details: compound at 10 μM
BTK, sequence (Q06187 whole entry): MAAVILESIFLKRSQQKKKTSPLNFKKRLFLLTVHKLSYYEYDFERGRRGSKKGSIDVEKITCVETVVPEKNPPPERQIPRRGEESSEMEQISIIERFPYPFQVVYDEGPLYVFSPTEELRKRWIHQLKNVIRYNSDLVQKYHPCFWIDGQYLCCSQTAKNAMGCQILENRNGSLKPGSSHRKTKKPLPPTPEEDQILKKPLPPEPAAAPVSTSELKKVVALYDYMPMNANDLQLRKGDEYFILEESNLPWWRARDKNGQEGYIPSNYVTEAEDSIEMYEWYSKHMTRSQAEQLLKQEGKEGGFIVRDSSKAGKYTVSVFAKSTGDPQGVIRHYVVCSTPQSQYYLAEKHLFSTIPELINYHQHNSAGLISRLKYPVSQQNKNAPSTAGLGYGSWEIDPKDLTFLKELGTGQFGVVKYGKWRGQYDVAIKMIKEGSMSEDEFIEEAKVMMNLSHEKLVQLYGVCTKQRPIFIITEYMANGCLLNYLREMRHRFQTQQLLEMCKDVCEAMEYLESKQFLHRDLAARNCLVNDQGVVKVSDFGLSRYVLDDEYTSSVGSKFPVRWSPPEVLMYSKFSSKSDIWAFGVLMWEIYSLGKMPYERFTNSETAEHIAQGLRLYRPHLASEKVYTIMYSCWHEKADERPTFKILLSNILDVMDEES

PDGFRα = PDGFRα (Homo sapiens (Human), UniProt P16234); assay: as above; format: biochemical; details: compound at 10 μM
PDGFRα, sequence (P16234 24-1089): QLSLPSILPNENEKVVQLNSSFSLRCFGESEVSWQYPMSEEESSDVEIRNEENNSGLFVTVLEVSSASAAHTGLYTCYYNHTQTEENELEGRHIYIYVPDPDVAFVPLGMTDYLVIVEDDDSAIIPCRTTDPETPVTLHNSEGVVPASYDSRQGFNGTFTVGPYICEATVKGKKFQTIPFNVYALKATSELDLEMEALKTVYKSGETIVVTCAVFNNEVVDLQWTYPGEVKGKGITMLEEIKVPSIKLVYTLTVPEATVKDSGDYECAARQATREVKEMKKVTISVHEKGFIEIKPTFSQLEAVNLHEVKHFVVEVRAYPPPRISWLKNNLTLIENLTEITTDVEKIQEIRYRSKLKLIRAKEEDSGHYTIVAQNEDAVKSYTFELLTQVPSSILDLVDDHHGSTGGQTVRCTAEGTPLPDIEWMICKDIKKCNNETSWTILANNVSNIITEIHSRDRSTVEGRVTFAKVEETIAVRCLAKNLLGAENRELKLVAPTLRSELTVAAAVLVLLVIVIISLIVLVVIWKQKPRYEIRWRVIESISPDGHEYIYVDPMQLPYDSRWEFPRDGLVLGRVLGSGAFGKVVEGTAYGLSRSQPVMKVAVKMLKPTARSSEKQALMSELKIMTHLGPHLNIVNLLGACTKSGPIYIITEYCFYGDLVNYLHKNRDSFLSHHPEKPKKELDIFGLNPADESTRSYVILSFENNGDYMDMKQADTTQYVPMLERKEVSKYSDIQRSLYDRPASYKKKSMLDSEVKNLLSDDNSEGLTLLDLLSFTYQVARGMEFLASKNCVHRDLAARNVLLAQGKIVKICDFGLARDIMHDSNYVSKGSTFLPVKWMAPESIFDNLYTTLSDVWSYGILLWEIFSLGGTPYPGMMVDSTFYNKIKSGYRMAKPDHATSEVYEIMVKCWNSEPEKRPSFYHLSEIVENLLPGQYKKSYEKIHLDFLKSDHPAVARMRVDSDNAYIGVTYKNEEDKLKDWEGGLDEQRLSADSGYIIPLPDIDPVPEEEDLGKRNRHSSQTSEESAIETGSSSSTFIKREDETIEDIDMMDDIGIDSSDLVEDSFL

VEGFR2 = VEGFR2 (Homo sapiens (Human), UniProt P35968); assay: as above; format: biochemical; details: ATP 90 μM (Km)
VEGFR2, sequence (P35968 20-1356): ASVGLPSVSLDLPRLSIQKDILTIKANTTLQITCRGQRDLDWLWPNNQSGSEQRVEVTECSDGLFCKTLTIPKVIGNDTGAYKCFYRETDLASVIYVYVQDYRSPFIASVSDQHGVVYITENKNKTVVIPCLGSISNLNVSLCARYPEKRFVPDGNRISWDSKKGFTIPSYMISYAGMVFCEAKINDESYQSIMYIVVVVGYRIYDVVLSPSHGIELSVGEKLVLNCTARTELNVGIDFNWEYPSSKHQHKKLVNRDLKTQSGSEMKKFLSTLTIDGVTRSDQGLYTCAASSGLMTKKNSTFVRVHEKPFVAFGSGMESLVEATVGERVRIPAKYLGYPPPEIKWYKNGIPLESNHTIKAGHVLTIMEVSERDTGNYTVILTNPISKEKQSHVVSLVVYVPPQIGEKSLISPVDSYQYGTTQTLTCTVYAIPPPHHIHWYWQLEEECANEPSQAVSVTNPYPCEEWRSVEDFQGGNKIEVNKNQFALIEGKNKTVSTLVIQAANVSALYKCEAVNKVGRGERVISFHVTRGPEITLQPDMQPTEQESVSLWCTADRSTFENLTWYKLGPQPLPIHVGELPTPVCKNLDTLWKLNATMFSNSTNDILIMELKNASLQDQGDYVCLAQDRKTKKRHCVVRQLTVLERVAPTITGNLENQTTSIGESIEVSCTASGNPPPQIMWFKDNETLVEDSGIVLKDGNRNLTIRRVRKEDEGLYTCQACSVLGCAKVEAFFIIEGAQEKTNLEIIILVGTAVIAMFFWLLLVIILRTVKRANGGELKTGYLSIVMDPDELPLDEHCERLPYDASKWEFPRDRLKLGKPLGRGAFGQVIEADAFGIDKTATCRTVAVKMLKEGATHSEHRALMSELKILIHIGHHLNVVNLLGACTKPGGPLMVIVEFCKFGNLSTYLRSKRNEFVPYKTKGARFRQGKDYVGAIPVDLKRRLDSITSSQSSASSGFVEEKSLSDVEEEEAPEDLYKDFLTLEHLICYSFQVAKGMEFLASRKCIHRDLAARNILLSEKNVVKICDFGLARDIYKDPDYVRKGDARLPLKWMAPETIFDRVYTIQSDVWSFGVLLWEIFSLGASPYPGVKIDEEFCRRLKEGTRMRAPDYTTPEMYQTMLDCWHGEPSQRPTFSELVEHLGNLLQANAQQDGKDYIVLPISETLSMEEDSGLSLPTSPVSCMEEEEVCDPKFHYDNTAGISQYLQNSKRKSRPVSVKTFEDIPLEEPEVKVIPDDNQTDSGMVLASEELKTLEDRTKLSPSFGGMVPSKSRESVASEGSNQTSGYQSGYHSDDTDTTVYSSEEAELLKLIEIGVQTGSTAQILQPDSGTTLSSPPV
Method in brief: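 Radiometric γ-33P-ATP assay: kinase (5-10 mU) with its substrate in 8 mM MOPS pH 7.0, 0.2 mM EDTA, 10 mM MnCl2, 10 mM magnesium acetate and test compound. Phosphorylation counted by scintillation after filter-membrane capture; IC50 from inhibition across compound concentrations, staurosporine as reference.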

| SMILES | IC50 [1] [nM] | IC50 [2] [nM] | IC50 [3] [nM] | IC50 [4] [nM] | IC50 [5] [nM] | IC50 [6] [nM] | IC50 [7] [nM] | IC50 [8] [nM] | IC50 [9] [nM] | IC50 [10] [nM] | IC50 [11] [nM] | The kinase activity inhibitory rate (%) by the tested compounds at 10 μM FLT3 (FLT3) [%] | The kinase activity inhibitory rate (%) by the tested compounds at 10 μM c-SRC (c-SRC) [%] | The kinase activity inhibitory rate (%) by the tested compounds at 10 μM ALK (ALK) [%] | The kinase activity inhibitory rate (%) by the tested compounds at 10 μM MET (MET) [%] | The kinase activity inhibitory rate (%) by the tested compounds at 10 μM c-KIT (c-KIT) [%] | The kinase activity inhibitory rate (%) by the tested compounds at 10 μM BTK (BTK) [%] | The kinase activity inhibitory rate (%) by the tested compounds at 10 μM PDGFRα (PDGFRα) [%] | IC50 (VEGFR2) [nM] |
| --- | --- | --- | --- | --- | --- | --- | --- | --- | --- | --- | --- | --- | --- | --- | --- | --- | --- | --- | --- |
| CC(C)n1c(Nc2ccc(Br)cc2)nc2cnc(Nc3ccc(N4CCN(C)CC4)cc3)nc21 [Compounds 8-15] | 2200 | 197 | 2300 | 710 | 2990 | 9400 | 303 | 1920 | > 10000 | 7790 | 775 | 90 | 97 | 40 | 45 | 94 | 95 | 94 | 4 |
| CC(C)n1c(Nc2cccc(C(F)(F)F)c2)nc2cnc(Nc3ccc(N4CCN(C)CC4)cc3)nc21 [Compounds 8-16] | 766 | 4800 | 1960 | > 1000 | 864 | 5880 | 2520 | 1370 | 6480 | 10400 | 3100 | 45 | 90 | 17 | 93 | 62 | 57 | 39 | > 1000 |
| COc1cccc(Nc2nc3cnc(Nc4ccc(N5CCN(C)CC5)cc4)nc3n2C(C)C)c1 [Compounds 8-17] | 813 | 684 | 783 | 664 | > 1000 | 8460 | 3 | 635 | > 10000 | > 10000 | 190 | 86 | 99 | 35 | 52 | 89 | 100 | 72 | > 1000 |
| COc1ccc(Nc2nc3cnc(Nc4ccc(N5CCN(C)CC5)cc4)nc3n2C(C)C)cc1 [Compounds 8-18] | 6290 | 183 | 3170 | 1520 | 4000 | 6350 | 1220 | 2120 | > 10000 | > 10000 | 6460 | 75 | 93 | 13 | 7 | 76 | 56 | 60 | 21 |
| CC(C)n1c(Nc2ccc(NC(=O)Nc3ccc(F)c(Cl)c3)cc2)nc2cnc(Nc3ccc(N4CCN(C)CC4)cc3)nc21 [Compounds 8-21] | 772 | 279 | 890 | 1330 | 2220 | 5720 | 1340 | 1590 | > 10000 | 8930 | 725 | 78 | 98 | 97 | 99 | 101 | 92 | 100 | > 1000 |
| CC(C)n1c(Nc2ccc(C(=O)Nc3cccc(F)c3)cc2)nc2cnc(Nc3ccc(N4CCN(C)CC4)cc3)nc21 [Compounds 8-22] | 1830 | 283 | 1720 | 511 | 1920 | 5520 | 921 | 1720 | > 10000 | > 10000 | 1300 | 87 | 98 | 70 | 69 | 10 | 63 | 43 | > 1000 |
| CN1CCN(c2ccc(Nc3ncc4nc(Nc5ccccc5)n(C5CC5)c4n3)cc2)CC1 [Compounds 8-23] | > 10000 | 241 | 5220 | 2790 | > 10000 | 7040 | 5200 | 6810 | > 10000 | > 10000 | 3180 | 68 | 83 | 3 | 1 | 26 | 30 | 28 | > 1000 |
| CN1CCN(c2ccc(Nc3ncc4nc(Nc5ccccc5)n(C)c4n3)cc2)CC1 [Compounds 8-24] | 1380 | 288 | 9650 | 8080 | > 10000 | 9650 | 1420 | 2410 | > 10000 | > 10000 | 2400 | 75 | 75 | 8 | 0 | 48 | 14 | 29 | > 1000 |
| CN1CCN(c2ccc(Nc3ncc4nc(Nc5ccccc5)[nH]c4n3)cc2)CC1 [Compounds 8-25] | > 10000 | 7900 | > 10000 | 5350 | > 10000 | > 10000 | > 10000 | 9990 | > 10000 | > 10000 | > 10000 | 32 | 78 | 13 | 0 | 8 | 45 | 21 | > 1000 |
| CC(C)n1c(Nc2ccc(C(F)(F)F)cc2)nc2cnc(Nc3ccc(N4CCN(C)CC4)cc3)nc21 [Compounds 8-27] | > 1000 | 88 | 1960 | 6110 | > 1000 | 2350 | 777 | 1180 | 2600 | > 1000 | 9790 | 83 | 98 | 30 | 36 | 93 | 74 | 68 | 9 |
